Source: article PMC12586182 (Frontiers in Oncology, 2025)

How the values were obtained:
[1] = biological target: biotinylated, inactive MEK1 (Homo sapiens, UniProt Q02750); test: biochemical
KATO III = test: Cell viability assay (ATPlite); assay type: cell-based, human; settings: KATO III cell line, 72 hours incubation
Procedure: (§1) Intracellular ATP content was used as an indirect readout of cell number using the ATPlite 1Step bioluminescence assay (Revvity, Groningen, the Netherlands). Cells were seeded in 384-well plates at an optimized density to ensure unrestricted growth and maximal signal at the end of the experiment. After 24 hours of incubation, the starting cell number was determined by adding ATPlite to each well of a control plate and recording luminescence on an Envision multimode reader (Revvity, Waltham, MA, USA) ([4]). Compounds were diluted in DMSO in √10-fold steps from 10 mmol/L stocks to obtain 9-point dilution series. After further 31.6-fold dilution in 20 mmol/L HEPES (pH 7.4), the dilution series were added in duplicate to the cells in the 384-well plates to determine the effect of the compounds on cell viability. Vehicle-treated controls were included to determine maximal cell proliferation. The final DMSO concentration was 0.4% (v/v) in all wells. After incubation for an additional 72 hours, the ATP content was measured in each well using ATPlite. The luminescent signal in inhibitor-treated wells was normalized to vehicle-treated control wells to determine the percentage viability at each concentration. Cell doublings were determined by relating the cell number of vehicle-treated controls to the starting cell number for each cell line. The viability assay of a cell line was repeated when the cell doubling deviated > 2-fold from the historic doubling as determined by multiple independent experiments. The quality of the complete assay was determined by a parallel test with doxorubicin on two cell lines. IC50 values were calculated by fitting a four-parameter logistic model to the percentage viability values using IDBS XLfit5 (IDBS, Guildford, United Kingdom). All curves were visually inspected and submitted to an F-test as implemented in IDBS XLfit5. Curves with an F-value above 1.5 were invalidated and IC50 values were maximized at the highest concentration.

KG-1 = test: Cell viability assay (ATPlite); assay type: cell-based, human; settings: KG-1 cell line, 72 hours incubation
Procedure: as §1

AN3-CA = test: Cell viability assay (ATPlite); assay type: cell-based, human; settings: AN3-CA cell line, 72 hours incubation
Procedure: as §1

RT-4 = test: Cell viability assay (ATPlite); assay type: cell-based, human; settings: RT-4 cell line, 72 hours incubation
Procedure: as §1

SIK3 = SIK3 (Homo sapiens, UniProt Q9Y2K2); test: Competition binding assay (Eurofins DiscoverX)
Sequence of SIK3 (Q9Y2K2 whole entry): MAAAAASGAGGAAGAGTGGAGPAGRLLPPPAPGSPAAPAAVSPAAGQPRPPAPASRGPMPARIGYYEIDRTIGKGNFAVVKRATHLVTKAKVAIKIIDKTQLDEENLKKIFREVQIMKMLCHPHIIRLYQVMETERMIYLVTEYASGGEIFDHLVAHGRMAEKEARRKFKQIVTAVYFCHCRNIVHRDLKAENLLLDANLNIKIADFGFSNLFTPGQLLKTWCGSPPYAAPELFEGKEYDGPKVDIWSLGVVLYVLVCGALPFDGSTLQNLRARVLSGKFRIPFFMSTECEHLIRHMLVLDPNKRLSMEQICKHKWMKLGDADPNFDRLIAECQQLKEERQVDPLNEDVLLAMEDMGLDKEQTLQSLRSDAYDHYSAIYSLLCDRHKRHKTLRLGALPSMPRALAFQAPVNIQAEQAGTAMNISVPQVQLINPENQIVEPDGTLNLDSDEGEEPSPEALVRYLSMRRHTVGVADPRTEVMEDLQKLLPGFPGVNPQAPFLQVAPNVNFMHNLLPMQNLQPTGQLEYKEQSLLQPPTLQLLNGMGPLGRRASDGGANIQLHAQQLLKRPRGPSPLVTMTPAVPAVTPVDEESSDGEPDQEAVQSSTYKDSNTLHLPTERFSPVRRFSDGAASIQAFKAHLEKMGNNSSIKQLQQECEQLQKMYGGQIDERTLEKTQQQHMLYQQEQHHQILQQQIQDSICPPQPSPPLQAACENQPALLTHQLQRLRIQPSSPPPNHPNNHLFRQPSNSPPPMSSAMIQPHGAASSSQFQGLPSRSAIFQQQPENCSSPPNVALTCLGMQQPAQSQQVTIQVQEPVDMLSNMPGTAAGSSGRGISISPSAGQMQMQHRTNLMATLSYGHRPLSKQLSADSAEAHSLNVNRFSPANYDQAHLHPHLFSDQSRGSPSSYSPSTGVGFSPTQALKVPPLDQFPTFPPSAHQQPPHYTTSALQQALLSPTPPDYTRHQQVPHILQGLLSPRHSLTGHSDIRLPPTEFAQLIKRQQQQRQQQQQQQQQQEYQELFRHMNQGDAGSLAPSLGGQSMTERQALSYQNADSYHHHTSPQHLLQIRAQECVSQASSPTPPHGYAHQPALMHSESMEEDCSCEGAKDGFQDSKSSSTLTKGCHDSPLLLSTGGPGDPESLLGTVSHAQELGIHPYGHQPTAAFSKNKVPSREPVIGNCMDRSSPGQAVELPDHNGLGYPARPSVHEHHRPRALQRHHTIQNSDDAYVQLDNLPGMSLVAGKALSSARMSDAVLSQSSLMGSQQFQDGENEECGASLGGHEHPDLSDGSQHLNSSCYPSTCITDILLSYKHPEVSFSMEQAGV
Procedure: Inhibition of MLK1 and B-RAF at K M,ATP was determined in a radiometric assay using ^32P-labeled ATP at Eurofins Cerep SA (Celle-Lévescault, France). Interaction with SIK3 was assessed in a competition binding assay at Eurofins DiscoverX LLC (San Diego, CA, USA).

Sequence of biotinylated, inactive MEK1 (Q02750 whole entry): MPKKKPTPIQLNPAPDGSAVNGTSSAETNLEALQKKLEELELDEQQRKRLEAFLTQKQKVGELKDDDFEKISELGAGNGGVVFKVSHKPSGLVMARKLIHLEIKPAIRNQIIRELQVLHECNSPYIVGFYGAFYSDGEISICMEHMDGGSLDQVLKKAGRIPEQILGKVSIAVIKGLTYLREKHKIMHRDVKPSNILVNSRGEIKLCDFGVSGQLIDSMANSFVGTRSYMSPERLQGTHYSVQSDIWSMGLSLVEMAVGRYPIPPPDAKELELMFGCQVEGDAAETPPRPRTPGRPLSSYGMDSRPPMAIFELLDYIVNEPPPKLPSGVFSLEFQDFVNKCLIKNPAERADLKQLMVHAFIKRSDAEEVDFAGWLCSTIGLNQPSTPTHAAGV

O=C(c1ccc(Oc2ccccc2)cc1Cl)c1c[nH]c2ncnc(N[C@@H]3CC[C@@H](CO)OC3)c12 [nemtabrutinib]
Kd [1]: 10 nM
IC50 (KATO III; Homo sapiens, KATO III, 72 h): 1100 nM
IC50 (KATO III): 1120 nM
IC50 (KG-1; Homo sapiens, KG-1, 72 h): 1400 nM
IC50 (KG-1): 1410 nM
IC50 (AN3-CA): 1190 nM
IC50 (AN3-CA; Homo sapiens, AN3-CA, 72 h): 1100 nM
IC50 (RT-4; Homo sapiens, RT-4, 72 h): 1700 nM
IC50 (RT-4): 1700 nM
IC50 (SIK3): > 10000 nM
Binding to SIK3 (SIK3; competition binding assay): No binding
